Assays:
[1] = molecular target: T1, DNMT3A2/3L complex (Homo sapiens) (UniProt Q9Y6K1+Q9UJW3); assay: (§1) Inhibition of N-terminal His-tagged human DNMT3A (623 to 912 residues)/N-terminal GST-tagged human DNMT3L (160 to 387 residues) co-expressed in baculovirus infected Sf9 cells assessed as DNA methylation using DNA oligonucleotide IDT-01 as substrate at 100 uM preincubated for 15 mins followed by substrate addition in presence of [3H]-SAM and measured after 4 hrs by radioactive methylation assay; settings: time 255.0 min
T1 sequence (Q9UJW3 whole entry, looked up, the tested form may be a part): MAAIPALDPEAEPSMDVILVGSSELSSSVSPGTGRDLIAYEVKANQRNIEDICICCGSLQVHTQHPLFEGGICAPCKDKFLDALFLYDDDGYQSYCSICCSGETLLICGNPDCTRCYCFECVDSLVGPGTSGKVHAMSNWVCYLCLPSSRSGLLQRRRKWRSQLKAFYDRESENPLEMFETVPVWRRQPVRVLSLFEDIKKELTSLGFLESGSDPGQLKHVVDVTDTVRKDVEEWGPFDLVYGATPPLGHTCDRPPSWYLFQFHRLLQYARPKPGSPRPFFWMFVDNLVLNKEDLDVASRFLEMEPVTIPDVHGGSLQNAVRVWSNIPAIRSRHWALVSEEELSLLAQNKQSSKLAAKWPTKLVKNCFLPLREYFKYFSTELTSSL
T1 sequence (Q9Y6K1 whole entry, looked up, the tested form may be a part): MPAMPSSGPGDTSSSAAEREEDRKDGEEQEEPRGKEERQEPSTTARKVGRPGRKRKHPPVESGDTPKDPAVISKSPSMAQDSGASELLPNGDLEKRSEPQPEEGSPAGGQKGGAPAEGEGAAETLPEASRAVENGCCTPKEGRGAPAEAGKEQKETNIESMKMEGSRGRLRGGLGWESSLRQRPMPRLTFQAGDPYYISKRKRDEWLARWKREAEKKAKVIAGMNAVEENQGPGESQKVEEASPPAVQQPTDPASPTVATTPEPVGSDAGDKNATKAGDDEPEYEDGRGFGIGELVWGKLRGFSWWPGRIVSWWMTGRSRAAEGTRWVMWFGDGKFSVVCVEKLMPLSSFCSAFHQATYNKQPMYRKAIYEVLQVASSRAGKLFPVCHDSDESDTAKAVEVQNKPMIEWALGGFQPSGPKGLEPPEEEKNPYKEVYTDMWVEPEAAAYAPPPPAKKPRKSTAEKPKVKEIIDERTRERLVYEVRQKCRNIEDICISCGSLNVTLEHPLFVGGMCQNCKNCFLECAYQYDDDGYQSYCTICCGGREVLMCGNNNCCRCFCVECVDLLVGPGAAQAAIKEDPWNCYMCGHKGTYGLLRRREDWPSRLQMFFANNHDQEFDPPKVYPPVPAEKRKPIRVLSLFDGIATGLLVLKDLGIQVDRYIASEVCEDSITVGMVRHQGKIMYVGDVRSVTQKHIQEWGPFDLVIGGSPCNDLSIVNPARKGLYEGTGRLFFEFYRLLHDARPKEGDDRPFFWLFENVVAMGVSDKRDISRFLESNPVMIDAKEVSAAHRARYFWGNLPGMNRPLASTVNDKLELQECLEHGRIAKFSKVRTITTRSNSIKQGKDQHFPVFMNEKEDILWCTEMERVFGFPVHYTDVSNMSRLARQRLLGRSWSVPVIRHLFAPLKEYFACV

[2] = molecular target: T1, DNMT3A2/3L complex (Homo sapiens); assay: as §1, with “10” for “100”; settings: time 255.0 min

| Structure (SMILES) | inhibition [1] [%] | inhibition [2] [%] |
| --- | --- | --- |
| Cc1sc2ncn(CCCN(C)C)c(=O)c2c1C(=O)Nc1ccc(C#N)nc1 | 37.8 | 28.9 |
| Cc1oc2ncn(CCCN3CCCCC3)c(=O)c2c1C(=O)Nc1ccc(C#N)cc1 | 44 | 32.9 |
| Cc1oc2ncn(CCCN3CCOCC3)c(=O)c2c1C(=O)Nc1ccc(C#N)cc1 | 28.4 | 22.7 |
| Cc1oc2ncn(CCN3CCCC3)c(=O)c2c1C(=O)Nc1ccc(C#N)cc1 | 48.6 | 47.5 |
| Cc1oc2ncn(CCCN3CCCC3)c(=O)c2c1C(=O)Nc1ccc(C#N)cc1 | 53.9 | 33.7 |
| Cc1oc2ncn(CC3CCCO3)c(=O)c2c1C(=O)Nc1ccc(S(N)(=O)=O)nc1 (stereo unspecified) | 29.5 | – |
| Cc1oc2ncn(CCN(C)C)c(=O)c2c1C(=O)Nc1ccc(C#N)cc1 | 24 | 21.7 |
| Cc1oc2ncn(Cc3ccncc3)c(=O)c2c1C(=O)Nc1ccc(S(N)(=O)=O)nc1 | 18.1 | – |
| Cc1oc2ncn(CCN3CCCCC3)c(=O)c2c1C(=O)Nc1ccc(C#N)cc1 | 14.3 | 25.4 |
| Cc1oc2ncn(Cc3ccccc3)c(=O)c2c1C(=O)Nc1ccc(S(N)(=O)=O)nc1 | 29.5 | – |
| Cc1oc2ncn(CCCN3CCOCC3)c(=O)c2c1C(=O)Nc1ccc(S(N)(=O)=O)nc1 | 54.2 | 36 |
| Cc1oc2ncn(C(C)c3ccccc3)c(=O)c2c1C(=O)Nc1ccc(S(N)(=O)=O)nc1 (stereo unspecified) | 28.6 | – |
| Cc1sc2ncn(CCCN(C)C)c(=O)c2c1C(=O)Nc1ccc(S(N)(=O)=O)nc1 | 57.5 | 51.3 |
| Cc1oc2ncn(CCN3CCOCC3)c(=O)c2c1C(=O)Nc1ccc(C#N)cc1 | 5.8 | 1 |
| Cc1oc2ncn(CCCN(C)C)c(=O)c2c1C(=O)Nc1ccc(C#N)cc1 | 36 | 36.4 |

— ChEMBL document CHEMBL5352402, “Discovery of novel non-nucleoside inhibitors with high potency and selectivity for DNA methyltransferase 3A” (Eur J Med Chem, 2022)
